Results published in PubChem BioAssay (NCI).
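1) Cells in 96-well plates. 2) Compound, 48 h, 5 concentrations. 3) Linear interpolation between surrounding doses. 4) Unreached endpoint = highest concentration. TGI is the concentration that stops growth completely.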

Tests used:
Test in all cases: inhibition of tumour cell growth, NCI panel, 48 h
SF-295 CNS = tested on: SF-295 CNS
SK-OV-3 ovarian = tested on: SK-OV-3 ovarian
SF-268 CNS = tested on: SF-268 CNS
SK-MEL-5 melanoma = tested on: SK-MEL-5 melanoma
BT-549 breast = tested on: BT-549 breast
DU-145 prostate = tested on: DU-145 prostate
HCT-116 colon = tested on: HCT-116 colon
MDA-MB-435 = tested on: MDA-MB-435
SN12C renal = tested on: SN12C renal
TK-10 renal = tested on: TK-10 renal
KM12 colon = tested on: KM12 colon
SK-MEL-2 melanoma = tested on: SK-MEL-2 melanoma
MDA-MB-231 breast = tested on: MDA-MB-231 breast
786-0 renal = tested on: 786-0 renal
NCI-H226 lung = tested on: NCI-H226 lung
PC-3 prostate = tested on: PC-3 prostate
NCI-H460 lung = tested on: NCI-H460 lung
HOP-92 NSCLC = tested on: HOP-92 NSCLC
MDA-N = tested on: MDA-N
MOLT-4 leukemia = tested on: MOLT-4 leukemia
A498 renal = tested on: A498 renal
UACC-257 melanoma = tested on: UACC-257 melanoma
HOP-62 NSCLC = tested on: HOP-62 NSCLC
K-562 leukemia = tested on: K-562 leukemia
UO-31 renal = tested on: UO-31 renal
RXF 393 renal = tested on: RXF 393 renal
MALME-3M melanoma = tested on: MALME-3M melanoma
SK-MEL-28 melanoma = tested on: SK-MEL-28 melanoma
OVCAR-3 ovarian = tested on: OVCAR-3 ovarian
HL-60(TB) leukemia = tested on: HL-60(TB) leukemia
HS 578T breast = tested on: HS 578T breast
SNB-75 CNS = tested on: SNB-75 CNS
IGROV1 ovarian = tested on: IGROV1 ovarian
UACC-62 melanoma = tested on: UACC-62 melanoma
M14 melanoma = tested on: M14 melanoma
U251 CNS = tested on: U251 CNS
CAKI-1 renal = tested on: CAKI-1 renal
EKVX NSCLC = tested on: EKVX NSCLC
ACHN renal = tested on: ACHN renal
HCC-2998 colon = tested on: HCC-2998 colon
OVCAR-8 ovarian = tested on: OVCAR-8 ovarian
NCI-H522 lung = tested on: NCI-H522 lung
HT29 colon = tested on: HT29 colon
RPMI-8226 leukemia = tested on: RPMI-8226 leukemia
OVCAR-5 ovarian = tested on: OVCAR-5 ovarian
COLO 205 colon = tested on: COLO 205 colon
CCRF-CEM leukemia = tested on: CCRF-CEM leukemia
NCI/ADR-RES ovarian = tested on: NCI/ADR-RES ovarian
MCF7 breast = tested on: MCF7 breast
OVCAR-4 ovarian = tested on: OVCAR-4 ovarian
NCI-H23 lung = tested on: NCI-H23 lung
SNB-19 CNS = tested on: SNB-19 CNS
LOX IMVI melanoma = tested on: LOX IMVI melanoma
HCT-15 colon = tested on: HCT-15 colon
A549 NSCLC = tested on: A549 NSCLC
SR leukemia = tested on: SR leukemia
SW-620 colon = tested on: SW-620 colon

OC(c1cc(-c2ccccc2)nc2c1ccc1ccccc12)C1CCCCN1 (stereo unspecified)
TGI (SF-295 CNS): 3.44 µM | TGI (SK-OV-3 ovarian): 3.32 µM | TGI (SF-268 CNS): 2.88 µM | TGI (SK-MEL-5 melanoma): 8.55 µM | TGI (BT-549 breast): 25 µM | TGI (DU-145 prostate): 3.45 µM | TGI (HCT-116 colon): 2.92 µM | TGI (MDA-MB-435): 3.33 µM | TGI (SN12C renal): 3.1 µM | TGI (TK-10 renal): 3.5 µM | TGI (KM12 colon): 3.35 µM | TGI (SK-MEL-2 melanoma): 3.17 µM | TGI (MDA-MB-231 breast): 3.36 µM | TGI (786-0 renal): 3.04 µM | TGI (NCI-H226 lung): > 100 µM | TGI (PC-3 prostate): 3.07 µM | TGI (NCI-H460 lung): 3.62 µM | TGI (HOP-92 NSCLC): 3.56 µM | TGI (MDA-N): 2.97 µM | TGI (MOLT-4 leukemia): > 100 µM | TGI (A498 renal): 3.76 µM | TGI (UACC-257 melanoma): 3.41 µM | TGI (HOP-62 NSCLC): 3.24 µM | TGI (K-562 leukemia): > 100 µM | TGI (UO-31 renal): 2.45 µM | TGI (RXF 393 renal): 3.03 µM | TGI (MALME-3M melanoma): 3.19 µM | TGI (SK-MEL-28 melanoma): 3.18 µM | TGI (OVCAR-3 ovarian): 3.29 µM | TGI (HL-60(TB) leukemia): 1.13 µM | TGI (HS 578T breast): 3.53 µM | TGI (SNB-75 CNS): 3.43 µM | TGI (IGROV1 ovarian): 2.98 µM | TGI (UACC-62 melanoma): 3.46 µM | TGI (M14 melanoma): 3.22 µM | TGI (U251 CNS): 3.15 µM | TGI (CAKI-1 renal): 4.04 µM | TGI (EKVX NSCLC): 5.4 µM | TGI (ACHN renal): 3.26 µM | TGI (HCC-2998 colon): 0.586 µM

NS(=O)(=O)c1cc(S(N)(=O)=O)c(NC(=O)N(c2ccccc2)c2ccccc2)c(Cl)c1Cl
TGI (OVCAR-8 ovarian): 34.2 µM | TGI (SF-295 CNS): 95.9 µM | TGI (SK-OV-3 ovarian): 65.3 µM | TGI (NCI-H522 lung): 27.1 µM | TGI (HT29 colon): 48.2 µM | TGI (RPMI-8226 leukemia): 44.6 µM | TGI (SF-268 CNS): > 100 µM | TGI (OVCAR-5 ovarian): > 100 µM | TGI (SK-MEL-5 melanoma): 33.1 µM | TGI (COLO 205 colon): 42.2 µM | TGI (BT-549 breast): 36.1 µM | TGI (CCRF-CEM leukemia): 25.7 µM | TGI (HCT-116 colon): > 100 µM | TGI (MDA-MB-435): 67.2 µM | TGI (SN12C renal): 57.6 µM | TGI (TK-10 renal): > 100 µM | TGI (KM12 colon): 57.1 µM | TGI (SK-MEL-2 melanoma): 82.7 µM | TGI (NCI/ADR-RES ovarian): 54.4 µM | TGI (MCF7 breast): > 100 µM | TGI (MDA-MB-231 breast): > 100 µM | TGI (786-0 renal): > 100 µM | TGI (NCI-H226 lung): 53.7 µM | TGI (OVCAR-4 ovarian): > 100 µM | TGI (PC-3 prostate): > 100 µM | TGI (NCI-H460 lung): > 100 µM | TGI (HOP-92 NSCLC): 27 µM | TGI (MDA-N): 88.5 µM | TGI (MOLT-4 leukemia): 42 µM | TGI (UACC-257 melanoma): 27.6 µM | TGI (K-562 leukemia): 81.4 µM | TGI (UO-31 renal): 94.1 µM | TGI (NCI-H23 lung): 58.2 µM | TGI (SNB-19 CNS): > 100 µM | TGI (LOX IMVI melanoma): 25 µM | TGI (SK-MEL-28 melanoma): > 100 µM | TGI (HCT-15 colon): > 100 µM | TGI (A549 NSCLC): > 100 µM | TGI (SR leukemia): 43.1 µM | TGI (OVCAR-3 ovarian): 49.4 µM | TGI (HL-60(TB) leukemia): 52 µM | TGI (HS 578T breast): 44.9 µM | TGI (IGROV1 ovarian): 25.6 µM | TGI (UACC-62 melanoma): 93.2 µM | TGI (M14 melanoma): 51.4 µM | TGI (U251 CNS): > 100 µM | TGI (CAKI-1 renal): 65.2 µM | TGI (SW-620 colon): > 100 µM | TGI (EKVX NSCLC): 62.8 µM | TGI (ACHN renal): 76.5 µM | TGI (HCC-2998 colon): 35.3 µM
